Data from patent publication US20120295887A1, “PHARMACEUTICALLY ACCEPTABLE SALTS OF PYRROLO-NITROGENOUS HETEROCYCLIC DERIVATIVES, PREPARATION METHOD AND MEDICAL USE THEREOF” (SHANGHAI HENGRUI PHARMACEUTICAL CO., LTD., priority 2010, published 2012).
Where a name gives a salt, the structure may show the parent alone. Read-outs that look alike come from different tables or passages of the source.

Assays:
[1] = Solubility assay in physiological saline; type: physicochemical; conditions: conclusion in words
Method: According to the conventional solubility measurement, the solubility of the compound of formula (I) and salts thereof were determined in physiological saline.

[2] = Pharmacokinetics assay in rats (intragastric and tail vein administration, plasma LC/MS/MS); type: in vivo; conditions: for F (oral absolute bioavailability) / bioavailability: intragastric 10 mg/kg (calculated by the base part), from AUC0-t vs tail vein injection; for Cmax: 0.5% CMC-Na suspension; for bioavailability: read-out: F (oral absolute bioavailability)
Method: The rats were used as experimental animals. The compound of formula (I) and other salts thereof were administrated intragastrically, the maleate of the compound of formula (I) was injected into the tail vein to determine the drug concentration in plasma at different time points by LC/MS/MS method. The pharmacokinetic behavior, characteristics and the oral absolute bioavailability of the compounds in the present invention were studied and evaluated in rats.
The compound of formula (I), compounds of Example 1˜5.
28 healthy adult SD rats, male and female in half, were divided into 7 groups (4 rats in each group) and purchased from SINO-BRITSH SIPPR/BK LAB. ANIMAL LTD., CO, License number: SCXK (Shanghai) 2008-0016.
The intravenous injection administration group: the suitable amount of compounds were weighted, added into physiological saline and diluted to the final volume. The sample concentration was 1.0 mg/mL.
The intragastrical administration group: the suitable amount of compounds were weighted and added into 0.5% CMC-Na to prepare 1.0 mg/mL suspension by using ultrasound device. The sample should be prepared freshly away from light at the time of use.
28 healthy adult SD rats, male and female in half, were divided into 7 groups (4 rats in each group). After an overnight fast, the compound of Example 1, at a dose of 10 mg/kg (calculated by the base part), at a volume of 10 mL/kg, was administered intragastrically or injected into the tail vein.
For the intravenous injection administration group, blood samples (0.2 mL) were taken from orbital sinus at pre administration and at 2 minutes, 15 minutes, 30 minutes, 1.0 hour, 2.0 hours, 4.0 hours, 6.0 hours, 8.0 hours, 12.0 hours, 24.0 hours and 36.0 hours post administration, stored in heparinized tubes and centrifuged for 10 minutes at 3,500 rpm. The plasma samples were stored at −20° C.
For the intragastrical administration group, blood samples were taken at pre administration and at 0.5, 1.0, 2.0, 3.0, 4.0, 6.0, 8.0, 12.0, 24.0 and 36.0 hours post administration. The method to treat the samples was the same with the intravenous injection administration group. The rats were fed 2 hours after administration.
25 μL of rat plasmas taken at various time points after administration were mixed with 20 μL of internal standard solution and […] of methanol for 2 minutes by using a vortexer and the mixture was centrifuged for 10 minutes at 16,000 rpm. 10 pt of the supernatant was analyzed by LC-MS/MS.
25 μL of rat blank plasmas were mixed with a series of standard solutions respectively to obtain plasma concentration of 1.00, 2.00, 5.00, 25.0, 100, 500, 2000 and 5000 ng/mL. 20 μL of internal standard solution and 150 μL of methanol were added and then the mixture was operated according to “plasma sample pretreatment” method. Plasma concentration was used as the abscissa, the ratio of chromatographic peak area between the sample and internal standard was used as the ordinate, the linear regression was carried out by the weighted least square method (w=1/x^2) to obtain the typical standard curve equation.
Compartment model fitting was carried out on the pharmacokinetic behavior of the tested compounds to calculate the main pharmacokinetic parameters, wherein the measured values were taken for Cmax and tmax. Oral absolute bioavailability was calculated according to AUC0-t after intragastrical administration and intravenous injection at tail vein.

[3] = Solubility in conventional solvents (inventor's finding); type: physicochemical; conditions: in words
Text: It is necessary to develop new forms of the compound of formula (I) to improve its solubility and pharmacokinetic absorption, which can be used in conventional preparation of dosage forms.

[4] = SD rats, intragastric 10 mg/kg, maleate
[5] = both sexes, Sprague-Dawley (SD), rat, plasma, iv, 10 mg/kg, Vein (tail vein injection) 10 mg/kg, read-out: MRT
[6] = both sexes, Sprague-Dawley (SD), rat, plasma, iv, Vein (tail vein injection) 10 mg/kg
[7] = both sexes, Sprague-Dawley (SD), rat, plasma, iv, Vein (tail vein injection) 10 mg/kg in physiological saline, read-out: AUC0-t
[8] = both sexes, Sprague-Dawley (SD), rat, plasma, po, 10 mg/kg, intragastric 10 mg/kg
[9] = both sexes, Sprague-Dawley (SD), rat, plasma, po, 10 mg/kg
[10] = both sexes, Sprague-Dawley (SD), rat, plasma, po, 10 mg/kg, intragastric 10 mg/kg, read-out: Cmax
[11] = both sexes, Sprague-Dawley (SD), rat, plasma, po, 10 mg/kg, intragastric 10 mg/kg, read-out: AUC0-t
[12] = both sexes, Sprague-Dawley (SD), rat, plasma, po, 10 mg/kg, intragastric 10 mg/kg, read-out: MRT
[13] = both sexes, Sprague-Dawley (SD), rat, plasma, po, 10 mg/kg, intragastric 10 mg/kg, read-out: Tmax
[14] = SD rats, Vein (tail vein injection) 10 mg/kg

| SMILES | MRT [2, 5] [h] | half-life [2, 6] [min] | AUC(0-t) [2, 7] [ng·h/mL] | CL/F [2, 8] [mL/min/kg] | half-life [2, 8] [min] | bioavailability [2, 9] [%] | Cmax [2, 10] [ng/mL] | AUC(0-t) [2, 11] [ng·h/mL] | MRT [2, 12] [h] | Tmax [2, 13] [h] | further results |
| --- | --- | --- | --- | --- | --- | --- | --- | --- | --- | --- | --- |
| Cc1c(/C=C2\C(=O)Nc3ccc(F)cc32)[nH]c2c1C(=O)N(C[C@H](O)CN1CCOCC1)CCC2 [Example 1, (R,Z)-2-(5-fluoro-2-oxo-1,2-dihydro-indol-3-ylidenemethyl)-5-(2-hydroxy-3-morpholin-4-yl-propyl)-3-methyl-5,6,7,8-tetrahydro-1H-pyrrolo[3,2-c]azepin-4-one maleate] | – | – | – | – | – | – | – | – | – | – | solubility compared with free base and other salts of the compound of formula (I) [1]: Conclusion: Compared with free base and other salts of the compound of formula (I), the solubility of maleate of the compound of formula (I) has significantly improved.; F (oral absolute bioavailability) ([2]; SD rats, maleate): 48.2%; Cmax [2, 4]: 950 ± 370 ng/mL; AUC(0-t) [2, 4]: 7770 ± 2990 ng·h/mL; MRT [2, 4]: 6.66 ± 2.05 h; Tmax [2, 4]: 5.75 ± 2.06 h; t1/2 [2, 4]: 3.01 ± 0.60 h |
| Cc1c(/C=C2\C(=O)Nc3ccc(F)cc32)[nH]c2c1C(=O)N(C[C@H](O)CN1CCOCC1)CCC2.O=C(O)C[C@H](O)C(=O)O [Example 2, (R,Z)-2-(5-fluoro-2-oxo-1,2-dihydro-indol-3-ylidenemethyl)-5-(2-hydroxy-3-morpholin-4-yl-propyl)-3-methyl-5,6,7,8-tetrahydro-1H-pyrrolo[3,2-c]azepin-4-one malate] | 1.4 ± 0.35 | 358 ± 150 | 16100 ± 3970 | 29.8 | 188 ± 58.2 | 30.4 | 850 ± 390 | 4900 ± 2790 | 4.29 ± 1.87 | 1.75 ± 1.66 | – |
| CC(O)C(=O)O.Cc1c(/C=C2\C(=O)Nc3ccc(F)cc32)[nH]c2c1C(=O)N(C[C@H](O)CN1CCOCC1)CCC2 [Example 3, (R,Z)-2-(5-fluoro-2-oxo-1,2-dihydro-indol-3-ylidenemethyl)-5-(2-hydroxy-3-morpholin-4-yl-propyl)-3-methyl-5,6,7,8-tetrahydro-1H-pyrrolo[3,2-c]azepin-4-one lactate] | 1.4 ± 0.35 | 358 ± 150 | 16100 ± 3970 | 27.3 | 184 ± 72.6 | 36.6 | 810 ± 450 | 5900 ± 3350 | 6.28 ± 1.56 | 2.5 ± 1 | – |
| Cc1c(/C=C2\C(=O)Nc3ccc(F)cc32)[nH]c2c1C(=O)N(C[C@H](O)CN1CCOCC1)CCC2 [Example 4, (R,Z)-2-(5-fluoro-2-oxo-1,2-dihydro-indol-3-ylidenemethyl)-5-(2-hydroxy-3-morpholin-4-yl-propyl)-3-methyl-5,6,7,8-tetrahydro-1H-pyrrolo[3,2-c]azepin-4-one mesylate] | 1.4 ± 0.35 | 358 ± 150 | 16100 ± 3970 | 24.8 | 205 ± 51 | – | 770 ± 390 | 7300 ± 5870 | 6.68 ± 1.58 | – | F (oral absolute bioavailability) ([2]; SD rats, mesylate): 45.3%; Tmax ([2]; SD rats, intragastric 10 mg/kg, mesylate): 3.75 ± 1.71 h |
| Cc1c(/C=C2\C(=O)Nc3ccc(F)cc32)[nH]c2c1C(=O)N(C[C@H](O)CN1CCOCC1)CCC2.Cl [Example 5, (R,Z)-2-(5-fluoro-2-oxo-1,2-dihydro-indol-3-ylidenemethyl)-5-(2-hydroxy-3-morpholin-4-yl-propyl)-3-methyl-5,6,7,8-tetrahydro-1H-pyrrolo[3,2-c]azepin-4-one hydrochloride] | 1.4 ± 0.35 | – | – | 33.8 | 216 ± 31.2 | 25.2 | 500 ± 100 | 4070 ± 1630 | 6.8 ± 1.58 | 4.25 ± 2.06 | half-life ([2]; both sexes, Sprague-Dawley (SD), rat, plasma, iv, 10 mg/kg, Vein (tail vein injection) 10 mg/kg): 358 ± 150 min; AUC(0-t) ([2]; both sexes, Sprague-Dawley (SD), rat, plasma, iv, 10 mg/kg, Vein (tail vein injection) 10 mg/kg in physiological saline, read-out: AUC0-t): 16100 ± 3970 ng·h/mL |
| Cc1c(/C=C2\C(=O)Nc3ccc(F)cc32)[nH]c2c1C(=O)N(C[C@H](O)CN1CCOCC1)CCC2 [The compound of formula (I), (R,Z)-2-(5-fluoro-2-oxo-1,2-dihydro-indol-3-ylidenemethyl)-5-(2-hydroxy-3-morpholin-4-yl-propyl)-3-methyl-5,6,7,8-tetrahydro-1H-pyrrolo[3,2-c]azepin-4-one] | – | – | – | – | – | – | – | – | – | – | solubility in conventional solvents [3]: poorly soluble; MRT [2, 14]: 1.40 ± 0.35 h; t1/2 [2, 14]: 5.97 ± 2.50 h; AUC(0-t) ([2]; SD rats, Vein (tail vein injection) 10 mg/kg in physiological saline): 16120 ± 3970 ng·h/mL; AUC(0-t) ([2]; SD rats, intragastric 10 mg/kg): 4490 ± 2790 ng·h/mL; MRT ([2]; SD rats, intragastric 10 mg/kg): 5.24 ± 2.23 h; Tmax ([2]; SD rats, intragastric 10 mg/kg): 2.00 ± 1.41 h; t1/2 ([2]; SD rats, intragastric 10 mg/kg): 3.31 ± 0.57 h; F (oral absolute bioavailability) ([2]; SD rats): 27.9%; Cmax ([2]; SD rats, intragastric 10 mg/kg): 640 ± 240 ng/mL |
